Experimental data taken from US20240391958A1, “KEANUMYCINS AND USES THEREOF IN MEDICINE AND PLANT PROTECTION” (Leibniz-Institut für Naturstoff-Forschung und …, priority 2023, published 2024).
Values joined by “and” are separate entries in the source; they are usually repeats but may differ in a detail not shown here. Equal values may be shown once. Read-outs that look alike come from different tables or passages of the source. Where a SMILES comes first, the peptide text is derived from it. Bridges are numbered along the chain shown (N, C = ends). [ ]: non-standard residue; d: D form. The star is where a group is joined. X1 = CCCCCCCCCCCC[C@@H](O)[C@@H](O)CC(=O)*; Asp(3S-OH) = N[C@H](C(=O)O)[C@H](O)C(=O)O; Thr(4-Cl) = N[C@H](C(=O)O)[C@H](O)CCl; aThr = C[C@H](O)[C@H](N)C(=O)O; d(hSer) = N[C@H](CCO)C(=O)O; dDab = NCC[C@@H](N)C(=O)O; Dab = NCC[C@H](N)C(=O)O; Dhb = C/C=C(\N)C(=O)O

Columns and labels:
[1] = system: A. comandoni; experiment: Amoebicidal activity against Acanthamoeba (resazurin assay); assay type: cell-based; details: 96 h, 28 °C, average of two experiments
Experimental: (§1) Amoebicidal activity of keanumycin A against Acanthamoeba was determined by culturing A. castellanii or A. comandoni in 96-well plates (Sarstedt) in 100 μL PYG medium (ATCC Medium 712; https://www.atcc.org) containing 1% DMSO (Carl Roth) and a specified amount of compound (starting from 50 μM; 2-fold serial dilution) in triplicates at 28° C. After 96 h the cell viability was determined using a resazurin assay. Therefore, 20 μL of a 1 mM resazurin sodium (Sigma) solution in water was added per single well before it was allowed to incubate for another 3 h at 28° C. Using a plate reader (Tecan Life Sciences, excitation 560 nm and emission 590 nm) the fluorescence emission was determined. The fluorescence (including standard deviation) was plotted against the logarithmic concentration of the compound and the IC50 value was determined using PRISM (GraphPad, Version 5.03).

[2] = system: A. castellanii; experiment: as above; assay type: cell-based; details: 96 h, 28 °C, average of two experiments
Experimental: as §1

[3] = system: Mycobacterium vaccae; experiment: Disk diffusion test; assay type: cell-based; details: 1 mg/mL in MeOH, 50 μL per 9 mm hole, 24 h 37 °C
Experimental: (§2) A qualitative screen of different microorganisms was performed using a disk diffusion test. Each microorganism was plated on Mueller Hinton agar plates and 9 mm holes were punched out. The respective compounds were dissolved in the indicated solvent to yield solutions of specified concentrations. 50 μL of the respective solutions were placed in each hole. The plates were incubated for 24 h at 37° C. After incubation, the size of inhibition zones was determined.

[4] = system: Enterococcus faecalis (VRE) 1528; experiment: Disk diffusion test; assay type: cell-based; details: 1 mg/mL in MeOH, 50 μL per 9 mm hole, 24 h 37 °C
Experimental: as §2

[5] = system: Pseudomonas aeruginosa K799/61; experiment: Disk diffusion test; assay type: cell-based; details: 1 mg/mL in MeOH, 50 μL per 9 mm hole, 24 h 37 °C
Experimental: as §2

[6] = system: Penicillium notatum; experiment: Disk diffusion test; assay type: cell-based; details: 1 mg/mL in MeOH, 50 μL per 9 mm hole, 24 h 37 °C; methanol alone 10 mm
Experimental: as §2

[7] = system: Staphylococcus aureus SG 511; experiment: Disk diffusion test; assay type: cell-based; details: 1 mg/mL in MeOH, 50 μL per 9 mm hole, 24 h 37 °C
Experimental: as §2

[8] = system: Bacillus subtilis; experiment: Disk diffusion test; assay type: cell-based; details: 1 mg/mL in MeOH, 50 μL per 9 mm hole, 24 h 37 °C
Experimental: as §2

[9] = system: Pseudomonas aeruginosa SG 137; experiment: Disk diffusion test; assay type: cell-based; details: 1 mg/mL in MeOH, 50 μL per 9 mm hole, 24 h 37 °C
Experimental: as §2

[10] = system: Candida albicans; experiment: Disk diffusion test; assay type: cell-based; details: 1 mg/mL in MeOH, 50 μL per 9 mm hole, 24 h 37 °C
Experimental: as §2

[11] = system: Staphylococcus aureus (MRSA) 134/94; experiment: Disk diffusion test; assay type: cell-based; details: 1 mg/mL in MeOH, 50 μL per 9 mm hole, 24 h 37 °C
Experimental: as §2

[12] = system: Sporobolomyces salmonicolor; experiment: Disk diffusion test; assay type: cell-based; details: 1 mg/mL in MeOH, 50 μL per 9 mm hole, 24 h 37 °C; methanol alone 10 mm
Experimental: as §2

[13] = system: Escherichia coli; experiment: Disk diffusion test; assay type: cell-based; details: 1 mg/mL in MeOH, 50 μL per 9 mm hole, 24 h 37 °C
Experimental: as §2

[14] = system: D. discoideum cells (AX2); experiment: Amoebicidal activity against D. discoideum (cell count, CASY); assay type: cell-based; details: Dictyostelium discoideum; 72 h, 22 °C, average of two experiments
Experimental: Amoebicidal activity of keanumycin A against D. discoideum was determined using a previously published method. In brief, 3000 D. discoideum cells (AX2) were cultured in 96-well plates (Sarstedt) in 200 μL HL5 medium containing 1% DMSO (Carl Roth) and a specified amount of compound (starting from 0.5 μM; 2-fold serial dilution) in triplicates at 22° C. After 72 h the cell concentration was determined according to the manufacturers instruction using a CASY® Cell Counter+Analyser System (Model TT, Roche Innovatis AG) equipped with a 60 μm capillary and the evaluation cursor set to 7.5-17.5 μm. The viable cell concentration (including standard deviation) was plotted against the logarithmic concentration of the compound and the IC50 value was determined using PRISM (GraphPad, Version 5.03).

[15] = system: C. albicans; experiment: Genome-wide microarray, transcription rate change; assay type: cell-based, Candida albicans; details: sublethal concentration, 1-h exposure, vs nontreated
[16] = system: Alternaria solani SF003858; experiment: Broth dilution method (NCCLS); assay type: cell-based; details: 22 °C
Experimental: (§3) The activity assay was performed using the broth dilution method according to the EUCAST DEFINITIVE DOCUMENT E.DEF 9.3.2. B. cinerea and A. solani were incubated according to the Methods for dilution antimicrobial susceptibility tests for bacteria that grow aerobically by the NCCLS. Keanumycin A was dissolved in DMSO.

[17] = system: Botrytis cinerea SF011406; experiment: Broth dilution method (NCCLS); assay type: cell-based
Experimental: as §3

With C/C=C1\NC(=O)[C@H]([C@H](C)O)NC(=O)[C@H](CCN)NC(=O)[C@@H](CCO)NC(=O)CNC(=O)[C@@H](CCN)NC(=O)[C@@H](NC(=O)C[C@H](O)[C@H](O)CCCCCCCCCCCC)COC(=O)[C@H]([C@H](O)CCl)NC(=O)[C@H]([C@H](O)C(=O)O)NC1=O [Keanumycin A, keanumycin A] (X1-S[dDab]G[d(hSer)][Dab][aThr][Dhb][Asp(3S-OH)][Thr(4-Cl)]; ester 1-C) the IC50 [1] was 3.1 µM, the IC50 [2] was 2 µM and the Inhibition area diameter [3] was 13 mm. The Inhibition area diameter [4] was 12 mm, the Inhibition area diameter [5] was 0 mm and the Inhibition area diameter [6] was 26 mm. For the same molecule, the Inhibition area diameter [7] was 10 mm, the Inhibition area diameter [8] was 11 mm and the Inhibition area diameter [9] was 0 mm. The Inhibition area diameter [10] was 30 mm, the Inhibition area diameter [11] was 0 mm and the Inhibition area diameter [12] was 28 mm. For the same molecule, the Inhibition area diameter [13] was 0 mm, the IC50 [14] was 0.0044 µM and the “transcription rate change, ERG3” value ([15]; ergosterol biosynthesis) was −1.83 log2-fold change. The “transcription rate change, IPT1” value ([15]; sphingolipid biosynthesis) was −0.44 log2-fold change, the “transcription rate change, ORM1” value ([15]; sphingolipid biosynthesis) was 0.55 log2-fold change and the “transcription rate change, SCS7/FAH1” value ([15]; sphingolipid biosynthesis) was −1.10 log2-fold change. The “transcription rate change, SYR2/SUR2” value ([15]; sphingolipid biosynthesis) was 0.66 log2-fold change, the MIC [16] was 1.07 µM and 1.25 µg/mL and the MIC ([17]; Botrytis cinerea SF011406, NCCLS, 22 °C) was 0.08 µg/mL. It also gave an MIC ([17]; Botrytis cinerea, SF011406, Botrytis cinerea, NCCLS, 22 °C, read-out: MIC) of 0.07 µM and an MIC ([17]; Botrytis cinerea, SF011406, Botrytis cinerea, read-out: MIC) of 0.069 µM.
